Measured values from patent US4873245A, “Isolation and structural elucidation of cephalostatins 1-4” (Arizona Board of Regents, priority 1988, dated 1989).
Converted amounts (≈) assume the structure as drawn. Where two headings read alike, the source gives them in different places.

Legend:
[1] = tested on: murine P388 lymphocytic leukemia; test: U.S. National Cancer Institute's murine P388 lymphocytic leukemia (PS system), life extension of host; type: in vivo; details: for activity against murine P388 lymphocytic leukemia (PS system), in words: mouse, in vivo
[2] = tested on: P388 lymphocytic leukemia cell line; test: PS in vitro: growth inhibition of P388 lymphocytic leukemia cell line, standard N.C.I. protocol; type: cell-based, murine
Source text: Cephalostatin 1 was placed against the P388 lymphocytic leukemia cell line using standard National Cancer Institute ("N.C.I.") protocol with the following results:
Cephalostatin 2 was placed against the P388 lymphocytic leukemia cell line using standard National Cancer Institute ("N.C.I.") protocol with the following results:
Cephalostatin 3 was placed against the P388 lymphocytic leukemia cell line using standard National Cancer Institute ("N.C.I.") protocol with the following results:
Cephalostatin 4 was placed against the P388 lymphocytic leukemia cell line using standard National Cancer Institute ("N.C.I.") protocol with the following results: […]

Row | Compound | Life Extension ([1]; 40 μg/Kg host body weight) [%] | activity against murine P388 lymphocytic leukemia (PS system), in words [1] | ED50 (PS cell line) [2] | Life Extension ([1]; 100 μg/Kg host body weight) [%] | ED50 (PS cell line) ([2]; listed as cephalostatin 4)
1 | C[C@@H]1[C@]2(O[C@H]3C=C4[C@@H]5CC[C@H]6Cc7nc8c(nc7C[C@]6(C)[C@H]5C[C@@H](O)[C@]4(C)[C@]31O)C[C@@H]1CC[C@H]3C4=CC[C@@H]5[C@H](C)[C@@]6(OC[C@]45C(=O)C[C@@H]3[C@@]1(C)C8)OC(C)(C)C[C@H]6O)O[C@](C)(CO)C[C@H]2O [Cephalostatin 1] | 31 | confirmed active level | 10^-7 to 10^-9 μg/ml | – | –
2 | C[C@@H]1[C@]2(O[C@H]3C=C4[C@@H]5CC[C@H]6Cc7nc8c(nc7C[C@]6(C)[C@H]5C[C@@H](O)[C@]4(C)[C@]31O)C[C@@H]1CC[C@H]3C4=CC[C@@H]5[C@H](C)[C@@]6(OC[C@]45C(=O)C[C@]3(O)[C@@]1(C)C8)OC(C)(C)[C@@H](C)[C@H]6O)O[C@](C)(CO)C[C@H]2O [Cephalostatin 3] | 30 | confirmed active level | 10^-7 to 10^-9 μg/ml | – | –
3 | C[C@@H]1[C@]2(O[C@H]3C=C4[C@@H]5CC[C@H]6Cc7nc8c(nc7C[C@]6(C)[C@H]5C[C@@H](O)[C@]4(C)[C@]31O)C[C@@H]1CC[C@H]3C4=CC[C@@H]5[C@H](C)[C@@]6(OC[C@]45C(=O)C[C@]3(O)[C@@]1(C)C8)OC(C)(C)C[C@H]6O)O[C@](C)(CO)C[C@H]2O [Cephalostatin 2] | 35 | confirmed active level | 10^-7 to 10^-9 μg/ml | – | –
4 | C[C@@H]1[C@]2(O[C@H]3C=C4[C@@H]5CC[C@H]6Cc7nc8c(nc7C[C@]6(C)[C@H]5C[C@@H](O)[C@]4(C)[C@]31O)C[C@@H]1CC[C@H]3[C@@]45O[C@@H]4C[C@@H]4[C@H](C)[C@@]6(OC[C@@]45C(=O)C[C@]3(O)[C@@]1(C)C8)OC(C)(C)C[C@H]6O)O[C@](C)(CO)C[C@H]2O [Cephalostatin 4] | – | confirmed active level | 0.00055 µg/mL (≈ 0.583 nM) | 25 | 10^-7 to 10^-9 μg/ml
